Measured values taken from ChEMBL document CHEMBL1201862, “PubChem BioAssay data set” (2004).
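Test compounds were applied to cells in 96-well plates for 48 hours at 5 doses. At the GI50, growth is halved.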 Active and inactive are the calls of the source. Rule as the data show it: active = GI50 up to about 1.1 µM and inactive = higher.

Tests used:
Assay in all cases: DTP human tumour cell line panel, 48 h
LOX IMVI = test system: LOX IMVI
UO-31 = test system: UO-31
SF-268 = test system: SF-268
K562 = test system: K562
HOP-62 = test system: HOP-62
Malme-3M = test system: Malme-3M
SK-MEL-2 = test system: SK-MEL-2
OVCAR-5 = test system: OVCAR-5
PC-3 = test system: PC-3
U-251 = test system: U-251
786-0 = test system: 786-0
HOP-92 = test system: HOP-92
MDA-MB-435 = test system: MDA-MB-435
KM12 = test system: KM12
CCRF-CEM = test system: CCRF-CEM
DU-145 = test system: DU-145
SNB-75 = test system: SNB-75
COLO 205 = test system: COLO 205
SR = test system: SR
TK-10 = test system: TK-10

SMILES: Nc1c(C(=O)Nc2ccc([As](=O)(O)O)cc2)cnc2nnnn12
- GI50 (LOX IMVI): > 100 µM (inactive)
- GI50 (UO-31): > 100 µM (inactive)
- GI50 (SF-268): > 100 µM (inactive)
- GI50 (K562): > 100 µM (inactive)
- GI50 (HOP-62): > 100 µM (inactive)
- GI50 (Malme-3M): > 100 µM (inactive)
- GI50 (SK-MEL-2): > 100 µM (inactive)
- GI50 (OVCAR-5): > 100 µM (inactive)
- GI50 (PC-3): > 100 µM (inactive)
- GI50 (U-251): > 100 µM (inactive)
- GI50 (786-0): > 100 µM (inactive)
- GI50 (HOP-92): > 100 µM (inactive)
- GI50 (MDA-MB-435): > 100 µM (inactive)
- GI50 (KM12): > 100 µM (inactive)
- GI50 (CCRF-CEM): > 100 µM (inactive)
- GI50 (DU-145): > 100 µM (inactive)
- GI50 (SNB-75): > 100 µM (inactive)
- GI50 (COLO 205): > 100 µM (inactive)
- GI50 (SR): > 100 µM (inactive)
- GI50 (TK-10): > 100 µM (inactive)

SMILES: N#CC(C#N)=Cc1c[nH]c(=O)[nH]c1=O
- GI50 (LOX IMVI): > 100 µM (inactive)
- GI50 (UO-31): > 100 µM (inactive)
- GI50 (SF-268): > 100 µM (inactive)
- GI50 (K562): > 100 µM (inactive)
- GI50 (HOP-62): > 100 µM (inactive)
- GI50 (Malme-3M): 6.35 µM (inactive)
- GI50 (SK-MEL-2): > 100 µM (inactive)
- GI50 (OVCAR-5): > 100 µM (inactive)
- GI50 (PC-3): > 100 µM (inactive)
- GI50 (U-251): > 100 µM (inactive)
- GI50 (786-0): > 100 µM (inactive)
- GI50 (HOP-92): > 100 µM (inactive)
- GI50 (MDA-MB-435): > 100 µM (inactive)
- GI50 (KM12): > 100 µM (inactive)
- GI50 (CCRF-CEM): 17.8 µM (inactive)
- GI50 (DU-145): > 100 µM (inactive)
- GI50 (SNB-75): > 100 µM (inactive)
- GI50 (COLO 205): > 100 µM (inactive)
- GI50 (SR): 0.152 µM (active)
- GI50 (TK-10): > 100 µM (inactive)

SMILES: CCOC(=O)C1=CN/C(=C(/C)C(=O)OC)SC1C(=O)OCC (stereo not given)
- GI50 (LOX IMVI): > 100 µM (inactive)
- GI50 (UO-31): > 78.5 µM (inactive)
- GI50 (SF-268): > 100 µM (inactive)
- GI50 (K562): 17.5 µM (inactive)
- GI50 (HOP-62): > 100 µM (inactive)
- GI50 (Malme-3M): > 100 µM (inactive)
- GI50 (SK-MEL-2): > 100 µM (inactive)
- GI50 (OVCAR-5): > 100 µM (inactive)
- GI50 (PC-3): 69.7 µM (inactive)
- GI50 (U-251): > 100 µM (inactive)
- GI50 (786-0): > 100 µM (inactive)
- GI50 (HOP-92): > 76.9 µM (inactive)
- GI50 (MDA-MB-435): > 100 µM (inactive)
- GI50 (KM12): > 100 µM (inactive)
- GI50 (CCRF-CEM): > 61 µM (inactive)
- GI50 (DU-145): > 100 µM (inactive)
- GI50 (SNB-75): > 100 µM (inactive)
- GI50 (COLO 205): > 100 µM (inactive)
- GI50 (SR): 47.8 µM (inactive)
- GI50 (TK-10): > 92.9 µM (inactive)

SMILES: Clc1ccc(-c2cn3c(nc4ccccc43)c(/C=C/c3cccs3)n2)cc1
- GI50 (LOX IMVI): > 100 µM (inactive)
- GI50 (UO-31): > 100 µM (inactive)
- GI50 (SF-268): 72.8 µM (inactive)
- GI50 (K562): 49.1 µM (inactive)
- GI50 (HOP-62): > 100 µM (inactive)
- GI50 (Malme-3M): > 100 µM (inactive)
- GI50 (SK-MEL-2): 41.6 µM (inactive)
- GI50 (OVCAR-5): > 100 µM (inactive)
- GI50 (PC-3): 44.9 µM (inactive)
- GI50 (U-251): 95.7 µM (inactive)
- GI50 (786-0): > 100 µM (inactive)
- GI50 (HOP-92): > 100 µM (inactive)
- GI50 (MDA-MB-435): 37.3 µM (inactive)
- GI50 (KM12): 33.7 µM (inactive)
- GI50 (CCRF-CEM): 45 µM (inactive)
- GI50 (DU-145): > 100 µM (inactive)
- GI50 (SNB-75): > 100 µM (inactive)
- GI50 (COLO 205): > 100 µM (inactive)
- GI50 (SR): 5.09 µM (inactive)
- GI50 (TK-10): 86.1 µM (inactive)
